Values of other authors in patent US7557115B2, “Compounds, compositions, and methods” (Cytokinetics, Inc., priority 2002, dated 2009).

System: A549 cells
Details: concentration that decreases rate of cell growth by fifty percent

NC(=O)NO [hydroxyurea]
GI50: 500 µM

COc1cccc2c1C(=O)c1c(O)c3c(c(O)c1C2=O)C[C@@](O)(C(=O)CO)C[C@@H]3O[C@H]1C[C@H](N)[C@H](O)[C@H](C)O1 [doxorubicin]
GI50: 0.063 µM

CC(=O)O[C@H]1C(=O)[C@@]2(C)[C@H]([C@H](OC(=O)c3ccccc3)[C@]3(O)C[C@H](OC(=O)[C@H](O)[C@@H](NC(=O)c4ccccc4)c4ccccc4)C(C)=C1C3(C)C)[C@]1(OC(C)=O)CO[C@@H]1C[C@@H]2O [paclitaxel]
GI50: 0.004 µM

O=c1[nH]cc(F)c(=O)[nH]1 [5-fluorouracil]
GI50: 1 µM
